Experimental data published in patent publication US20070197590A1, “SUBSTITUTED DIPIPERIDINE CCR2 ANTAGONISTS” (priority 2006, published 2007).

Experiments:
CCR2 = biological target: T1, CCR2 (Homo sapiens, UniProt P41597); test: MCP-1 Receptor Binding Assay in THP-1 Cells; settings: THP-1 cells, 0.5 nM 125I labeled MCP-1, 2 hours at 30° C.; read-out: Inhibition of MCP-1 Binding IC50
T1 construct: host or cells: THP-1 cells
T1 sequence (P41597 1-360 isoform P41597-2): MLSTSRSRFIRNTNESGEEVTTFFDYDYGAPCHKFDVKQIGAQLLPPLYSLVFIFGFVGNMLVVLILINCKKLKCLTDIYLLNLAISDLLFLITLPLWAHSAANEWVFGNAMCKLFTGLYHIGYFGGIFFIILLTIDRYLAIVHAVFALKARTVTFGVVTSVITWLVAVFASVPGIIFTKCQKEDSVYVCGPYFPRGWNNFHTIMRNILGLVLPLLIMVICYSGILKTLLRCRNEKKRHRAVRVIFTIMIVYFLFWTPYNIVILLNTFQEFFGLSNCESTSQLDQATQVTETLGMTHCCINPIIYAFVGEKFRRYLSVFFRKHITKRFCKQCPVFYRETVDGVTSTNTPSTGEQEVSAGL
Outline: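 Whole THP-1 cells incubated 2 h at 30° C with 0.5 nM 125I-MCP-1 and varying compound concentrations; bound radioactivity harvested on filters and counted by scintillation. Nonspecific binding with 1 μM cold MCP-1; IC50 for inhibition of binding versus vehicle.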

[1] = tested on: MCP-1 induced calcium ion influx in THP-1 cells; test: MCP-1 Induced Calcium Mobilization in THP-1 Cells; format: cell-based; settings: Homo sapiens, THP-1, THP-1 cells, 0.2 μM MCP-1, FLIPR; read-out: Inhibition of MCP-1 Induced Calcium Ion Influx IC50
Protocol: THP-1 cells were plated at a density of 8×10^5 cells/mL (100 μL/well) into poly-D lysine coated clear bottom, black 96 well plates. The cells were loaded with 5 μM fluo-3 for 45 minutes. The fluo-3 washed off and cells were incubated with varying concentrations of test compound for 15 minutes. The change in calcium ion concentration upon addition of 0.2 μM MCP-1 was determined using FLIPR and compared to vehicle.
Table 2 lists IC50 values for inhibition of MCP-1 induced influx of calcium ions.

[2] = tested on: MCP-1 induced chemotaxis of THP-1 cells; test: MCP-1 Induced Chemotaxis in THP-1 Cells; format: cell-based; settings: Homo sapiens, MCP-1 0.01 μg/mL, 3 hours at 37° C., read-out: Inhibition of MCP-1 Induced Chemotaxis IC50
Protocol: MCP-1 induced chemotaxis was run in a 24-well chemotaxis chamber. MCP-1 (0.01 μg/mL) was added to the lower chamber and 100 μL of THP-1 cells (1×10^7 cell/mL) was added to the top chamber. Varying concentrations of test compound were added to the top and bottom chambers. Cells were allowed to chemotax for 3 hours at 37° C. and 5% CO2. An aliquot of the cells that had migrated to the bottom chamber was taken and counted then compared to vehicle.
Table 3 lists IC50 values for inhibition of MCP-1 induced chemotaxis.

SMILES | IC50 (CCR2) | IC50 [1] | IC50 [2]
COc1ccc(C2CCN(CC(O)C3(O)CCN(C(=O)/C=C/c4ccc(Cl)c(Cl)c4)CC3)CC2)cc1 (stereo not drawn) [Compound 1] | 250 nM | 70 nM | 90 nM
O=C(Nc1ccc(Cl)c(Cl)c1)N1CCC(C(O)CN2CCC(c3c[nH]c4ccccc34)CC2)CC1 (stereo not drawn) [Compound 4, 4-{1-hydroxy-2-[4-(1H-indol-3-yl)-piperidin-1-yl]-ethyl}-piperidine-1-carboxylic acid (3,4-dichloro-phenyl)-amide] | 30 nM | 20 nM | 4 nM
O=C(Nc1cc(F)cc(F)c1)N1CCC(C(O)CN2CCC(c3c[nH]c4ccccc34)CC2)CC1 (stereo not drawn) [Compound 5, 4-{1-hydroxy-2-[4-(1H-indol-3-yl)-piperidin-1-yl]-ethyl}-piperidine-1-carboxylic acid (3,5-difluoro-phenyl)-amide] | 160 nM | 80 nM | 120 nM
O=C(/C=C/c1ccc(Cl)c(Cl)c1)N1CCC(C(O)CN2CCC(c3c[nH]c4ccccc34)CC2)CC1 (stereo not drawn) [Compound 6] | 40 nM | 7 nM | 20 nM
O=C(/C=C/c1cc(F)cc(F)c1)N1CCC(C(O)CN2CCC(c3c[nH]c4ccccc34)CC2)CC1 (stereo not drawn) [Compound 7] | 30 nM | 7 nM | 30 nM
OC(CN1CCC(c2c[nH]c3ccccc23)CC1)C1CCN(C(=S)Nc2cccc(Br)c2)CC1 (stereo not drawn) [Compound 9, 4-{1-hydroxy-2-[4-(1H-indol-3-yl)-piperidin-1-yl]-ethyl}-piperidine-1-carbothioic acid (3-bromo-phenyl)-amide] | 50 nM | 120 nM | 20 nM
N=C(NC(=O)c1cc(F)cc(F)c1)N1CCC(C(O)CN2CCC(c3c[nH]c4ccccc34)CC2)CC1 (stereo not drawn) [Compound 10, 3,5-difluoro-N-[(4-{1-hydroxy-2-[4-(1H-indol-3-yl)-piperidin-1-yl]-ethyl}-piperidin-1-yl)-imino-methyl]-benzamide] | 150 nM | 400 nM | 270 nM
Cc1cccc(/C=C/C(=O)N2CCC(C(O)CN3CCC(c4c[nH]c5ccccc45)CC3)CC2)c1 (stereo not drawn) [Compound 11] | 10 nM | 350 nM | 190 nM
COc1ccc(C2CCN(CC(O)C3CCN(C(=O)/C=C/c4cc(F)cc(F)c4)CC3)CC2)cc1 (stereo not drawn) [Compound 12] | 20 nM | 650 nM | 7 nM
COc1ccc(C2CCN(CC(O)C3CCN(C(=O)/C=C/c4cc(F)c(F)c(F)c4)CC3)CC2)cc1 (stereo not drawn) [Compound 13] | 10 nM | 240 nM | 60 nM
COc1ccc(C2CCN(CC(O)C3CCN(C(=O)/C=C/c4ccc(Cl)c(Cl)c4)CC3)CC2)cc1 (stereo not drawn) [Compound 14] | 140 nM | 3 nM | 150 nM
COc1ccc(C2CCN(CC(O)C3CCN(C(=O)Nc4ccc(Cl)c(Cl)c4)CC3)CC2)cc1 (stereo not drawn) [Compound 15, 4-{1-hydroxy-2-[4-(4-methoxy-phenyl)-piperidin-1-yl]-ethyl}-piperidine-1-carboxylic acid (3,4-dichloro-phenyl)-amide] | 30 nM | 110 nM | 20 nM
COc1ccc(C2CCN(CC(O)C3CCN(C(=S)Nc4cccc(Br)c4)CC3)CC2)cc1 (stereo not drawn) [Compound 16, 4-{1-hydroxy-2-[4-(4-methoxy-phenyl)-piperidin-1-yl]-ethyl}-piperidine-1-carbothioic acid (3-bromo-phenyl)-amide] | 130 nM | 980 nM | 300 nM
CS(=O)(=O)Nc1ccc2[nH]cc(C3CCN(CC(=O)C4CCN(C(=O)C=Cc5cc(F)c(F)c(F)c5)CC4)CC3)c2c1 [Compound 18, N-{3-[1-(2-oxo-2-{1-[3-(3,4,5-trifluoro-phenyl)-acryloyl]-piperidin-4-yl}-ethyl)-piperidin-4-yl]-1H-indol-5-yl}-methanesulfonamide] | 680 nM | 1700 nM | 420 nM
Cc1cccc(/C=C/C(=O)N2CCC(C(O)CN3CCC(c4c[nH]c5ncccc45)CC3)CC2)c1 (stereo not drawn) [Compound 19] | 130 nM | 30 nM | 190 nM
O=C(/C=C/c1cc(F)cc(F)c1)N1CCC(C(O)CN2CCC(c3c[nH]c4ncccc34)CC2)CC1 (stereo not drawn) [Compound 20] | 50 nM | 230 nM | 20 nM

SMILES | IC50 (CCR2) | IC50 [1] | IC50 [2]
O=C(/C=C/c1cc(F)c(F)c(F)c1)N1CCC(C(O)CN2CCC(c3c[nH]c4ncccc34)CC2)CC1 (stereo not drawn) [Compound 21] | 50 nM | 480 nM | 20 nM
O=C(/C=C/c1cccc(C(F)(F)F)c1)N1CCC(C(O)CN2CCC(c3c[nH]c4ncccc34)CC2)CC1 (stereo not drawn) [Compound 22] | 190 nM | 30 nM | 360 nM
O=C(/C=C/c1ccc(Cl)c(Cl)c1)N1CCC(C(O)CN2CCC(c3c[nH]c4ncccc34)CC2)CC1 (stereo not drawn) [Compound 23] | 20 nM | 7 nM | 20 nM
O=C(Nc1ccc(Cl)c(Cl)c1)N1CCC(C(O)CN2CCC(c3c[nH]c4ncccc34)CC2)CC1 (stereo not drawn) [Compound 24, 4-{1-hydroxy-2-[4-(1H-pyrrolo[2,3-b]pyridin-3-yl)-piperidin-1-yl]-ethyl}-piperidine-1-carboxylic acid (3,4-dichloro-phenyl)-amide] | 70 nM | 120 nM | 70 nM
CSc1ccc(NC(=O)N2CCC(C(O)CN3CCC(c4c[nH]c5ncccc45)CC3)CC2)cc1 (stereo not drawn) [Compound 25, 4-{1-hydroxy-2-[4-(1H-pyrrolo[2,3-b]pyridin-3-yl)-piperidin-1-yl]-ethyl}-piperidine-1-carboxylic acid (4-methylsulfanyl-phenyl)-amide] | 810 nM | 1500 nM | 640 nM
COc1ccc2[nH]cc(C3CCN(CC(O)C4CCN(C(=O)/C=C/c5cc(F)cc(F)c5)CC4)CC3)c2c1 (stereo not drawn) [Compound 26] | 70 nM | 370 nM | 20 nM
CS(=O)(=O)Nc1ccc2[nH]cc(C3CCN(CC(O)C4CCN(C(=O)/C=C/c5cc(F)c(F)c(F)c5)CC4)CC3)c2c1 (stereo not drawn) [Compound 27] | 10 nM | 8 nM | 10 nM
CS(=O)(=O)Nc1ccc2[nH]cc(C3CCN(CC(N)C4CCN(C(=O)C=Cc5cc(F)c(F)c(F)c5)CC4)CC3)c2c1 (stereo not drawn) [Compound 28, N-{3-[1-(2-amino-2-{1-[3-(3,4,5-trifluoro-phenyl)-acryloyl]-piperidin-4-yl}-ethyl)-piperidin-4-yl]-1H-indol-5-yl}-methanesulfonamide] | 250 nM | 310 nM | 370 nM
COc1ccc(C2CCN(CC(O)C3CCN(C(=O)/C=C/c4cccc(C)c4)CC3)CC2)cc1 (stereo not drawn) [Compound 29] | 70 nM | 90 nM | 70 nM
COc1ccc(C2CCN(CC(O)C3CCN(C(=O)/C=C/c4cccc(C(F)(F)F)c4)CC3)CC2)cc1 (stereo not drawn) [Compound 30] | 50 nM | 220 nM | 60 nM
COc1ccc(C2CCN(CC(O)C3CCN(C(=O)/C=C/c4ccc(F)c(F)c4)CC3)CC2)cc1 (stereo not drawn) [Compound 32] | 70 nM | 80 nM | 100 nM
O=C(/C=C/c1cc(F)cc(F)c1)N1CCC(C(O)CN2CCC(c3cc[nH]n3)CC2)CC1 (stereo not drawn) [Compound 34] | 570 nM | 10900 nM | 840 nM
Cc1cccc(C=CC(=O)N2CCC(C(O)CN3CCC(c4c[nH]c5ccc(NS(C)(=O)=O)cc45)CC3)CC2)c1 (stereo not drawn) [Compound 40, N-[3-(1-{2-hydroxy-2-[1-(3-m-tolyl-acryloyl)-piperidin-4-yl]-ethyl}-piperidin-4-yl)-1H-indol-5-yl]-methanesulfonamide] | 80 nM | 170 nM | 30 nM
CS(=O)(=O)Nc1ccc2[nH]cc(C3CCN(CC(O)C4CCN(C(=O)C=Cc5cc(F)cc(F)c5)CC4)CC3)c2c1 (stereo not drawn) [Compound 41, N-{3-[1-(2-{1-[3-(3,5-difluoro-phenyl)-acryloyl]-piperidin-4-yl}-2-hydroxy-ethyl)-piperidin-4-yl]-1H-indol-5-yl}-methanesulfonamide] | 40 nM | 90 nM | 20 nM
COc1ccc(C2CCN(CC(CO)C3CCN(C(=O)/C=C/c4ccc(Cl)c(Cl)c4)CC3)CC2)cc1 (stereo not drawn) [Compound 43] | 590 nM | 180 nM | 90 nM
COc1ccc(C2CCN(CC(CO)C3CCN(C(=O)/C=C/c4cc(F)cc(F)c4)CC3)CC2)cc1 (stereo not drawn) [Compound 45] | 120 nM | 150 nM | 170 nM
